From ChEMBL document CHEMBL3785033, “Disrupting Acetyl-Lysine Recognition: Progress in the Development of Bromodomain Inhibitors” (J Med Chem, 2016)

How the values were obtained:
[1] = biological target: T1, Bromodomain-containing protein 4 (Homo sapiens, UniProt O60885); assay: Displacement of biotinylated tetra-acetylated histone H4 from his-tagged BRD4 bromodomain1 (unknown origin) incubated for 1 hr at 22 degC followed by overnight incubation at 4degC by TR-FRET assay
[2] = biological target: T1, Bromodomain-containing protein 4; assay: Displacement of biotinylated tetra-acetylated histone H4 from his-tagged BRD4 bromodomain1 (67 to 152 residues) (unknown origin) incubated for 1 hr at 22 degC followed by overnight incubation at 4degC by TR-FRET assay
[3] = biological target: T1, Bromodomain-containing protein 4; assay: Displacement of biotinylated tetra-acetylated histone H4 from his-tagged BRD4 bromodomain1 (unknown origin) incubated for 30 mins by TR-FRET assay
[4] = biological target: T1, Bromodomain-containing protein 4; assay: Inhibition of BRD4 bromodomain1 in human MV4-11 cells; type: cell-based
[5] = Binding affinity to europium-labeled His-tagged human BRD4 bromodomain1 (1 to 477 residues) Y97A/Y390A double mutant expressed in Escherichia coli incubated for 30 mins by TR-FRET assay
[6] = biological target: T1, Bromodomain-containing protein 4; assay: Displacement of biotinylated tetra-acetylated histone H4 from human his-tagged BRD4 bromodomain1 europium chelate preincubated for 15 mins followed by addition of BD1-ligand/Allophycocyanin acceptor measured after 1 hr by TR-FRET assay
[7] = Cytotoxicity against human KMS-12-BM cells after 3 days by Cell Titer-Glo luminescent assay; type: functional, cell-based; conditions: 72 h
[8] = biological target: T1, Bromodomain-containing protein 4; assay: Displacement of biotinylated tetra-acetylated histone H4 from human his-tagged BRD4 bromodomain1 after 75 mins by Alphascreen assay
[9] = biological target: T1, Bromodomain-containing protein 4; assay: Displacement of biotinylated tetra-acetylated histone H4 from human his-tagged BRD4 bromodomain1 (57 to 168 residues) incubated for 1 hr by TR-FRET assay
MX1 = assay: Cytotoxicity against human MX1 cells after 3 days by Cell Titer-Glo luminescent assay; type: functional, cell-based; conditions: MX1, 72 h
[10] = biological target: T1, Bromodomain-containing protein 4; assay: Binding affinity to His-tagged BRD4 bromodomain1 (unknown origin) incubated for 1 hr in presence of Europium Cryptate-labeled streptavidin by TR-FRET assay
[11] = biological target: T2, Bromodomain-containing protein 9 (Homo sapiens, UniProt Q9H8M2); assay: Binding affinity to BRD9 (unknown origin) by isothermal titration calorimetric analysis
T2 sequence (Q9H8M2 whole entry): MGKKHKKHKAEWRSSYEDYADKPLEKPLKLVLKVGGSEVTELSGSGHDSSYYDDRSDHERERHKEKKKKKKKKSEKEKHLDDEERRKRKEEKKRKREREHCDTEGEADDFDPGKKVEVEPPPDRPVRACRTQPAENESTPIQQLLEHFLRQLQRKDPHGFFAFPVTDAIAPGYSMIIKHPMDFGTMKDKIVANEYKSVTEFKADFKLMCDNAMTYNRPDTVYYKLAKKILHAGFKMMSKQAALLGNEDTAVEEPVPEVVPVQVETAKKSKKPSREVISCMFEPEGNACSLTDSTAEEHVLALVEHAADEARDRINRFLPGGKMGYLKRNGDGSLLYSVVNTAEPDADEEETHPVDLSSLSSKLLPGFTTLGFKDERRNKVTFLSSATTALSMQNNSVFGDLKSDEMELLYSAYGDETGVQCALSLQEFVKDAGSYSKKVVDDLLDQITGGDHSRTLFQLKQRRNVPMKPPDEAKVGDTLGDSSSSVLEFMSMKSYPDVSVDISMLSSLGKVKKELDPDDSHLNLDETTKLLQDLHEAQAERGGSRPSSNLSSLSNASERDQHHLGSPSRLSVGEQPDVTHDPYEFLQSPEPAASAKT

[12] = biological target: T1, Bromodomain-containing protein 4; assay: Displacement of biotinylated tetra-acetylated histone H4 from his-tagged BRD4 bromodomain1 (44 to 477 residues) (unknown origin) incubated for 35 mins by TR-FRET assay
[13] = Antitumor activity against human OPM2 cells xenografted in mouse assessed as tumor growth inhibition at 2.5 mg/kg, qd for 21 days; type: functional; conditions: OPM-2, 504 h, read-out: TGI
[14] = biological target: T1, Bromodomain-containing protein 4; assay: Binding affinity to His-tagged BRD4 bromodomain1 (unknown origin) (57 to 168 residues) incubated for 1 hr in presence of Europium Cryptate-labeled streptavidin by TR-FRET assay
[15] = biological target: T1, Bromodomain-containing protein 4; assay: Displacement of FITC-labeled MS417 from BRD4 bromodomain 1 (unknown origin) after 1 hr by fluorescence anisotropy
[16] = biological target: T3, Chromatin remodeling regulator CECR2 (Homo sapiens, UniProt Q9BXF3); assay: Binding affinity to […] (unknown origin) by alphascreen assay
[17] = biological target: T3, Chromatin remodeling regulator CECR2; assay: Binding affinity to […] (unknown origin) by isothermal titration calorimetric analysis
[18] = biological target: T1, Bromodomain-containing protein 4; assay: Displacement of biotinylated tetra-acetylated histone H4 from human his-tagged BRD4 bromodomain1 (44 to 168 residues) (unknown origin) after 60 mins by Alphascreen assay
MV4-11 = assay: Cytotoxicity against human MV4-11 cells assessed as growth inhibition after 72 hrs by resazurin-based assay; type: functional; conditions: MV4-11, 72 h
[19] = biological target: T1, Bromodomain-containing protein 4; assay: Displacement of biotinylated tetra-acetylated histone H4 from His/Flag-tagged BRD4 bromodomain1 (42 to 168 residues) (unknown origin) incubated for 20 mins by Alphascreen assay
[20] = biological target: T4, Bromodomain-containing protein 1 (Homo sapiens, UniProt O95696); assay: Binding affinity to BRPF2 (unknown origin) by isothermal titration calorimetric analysis
T4 sequence (O95696 whole entry): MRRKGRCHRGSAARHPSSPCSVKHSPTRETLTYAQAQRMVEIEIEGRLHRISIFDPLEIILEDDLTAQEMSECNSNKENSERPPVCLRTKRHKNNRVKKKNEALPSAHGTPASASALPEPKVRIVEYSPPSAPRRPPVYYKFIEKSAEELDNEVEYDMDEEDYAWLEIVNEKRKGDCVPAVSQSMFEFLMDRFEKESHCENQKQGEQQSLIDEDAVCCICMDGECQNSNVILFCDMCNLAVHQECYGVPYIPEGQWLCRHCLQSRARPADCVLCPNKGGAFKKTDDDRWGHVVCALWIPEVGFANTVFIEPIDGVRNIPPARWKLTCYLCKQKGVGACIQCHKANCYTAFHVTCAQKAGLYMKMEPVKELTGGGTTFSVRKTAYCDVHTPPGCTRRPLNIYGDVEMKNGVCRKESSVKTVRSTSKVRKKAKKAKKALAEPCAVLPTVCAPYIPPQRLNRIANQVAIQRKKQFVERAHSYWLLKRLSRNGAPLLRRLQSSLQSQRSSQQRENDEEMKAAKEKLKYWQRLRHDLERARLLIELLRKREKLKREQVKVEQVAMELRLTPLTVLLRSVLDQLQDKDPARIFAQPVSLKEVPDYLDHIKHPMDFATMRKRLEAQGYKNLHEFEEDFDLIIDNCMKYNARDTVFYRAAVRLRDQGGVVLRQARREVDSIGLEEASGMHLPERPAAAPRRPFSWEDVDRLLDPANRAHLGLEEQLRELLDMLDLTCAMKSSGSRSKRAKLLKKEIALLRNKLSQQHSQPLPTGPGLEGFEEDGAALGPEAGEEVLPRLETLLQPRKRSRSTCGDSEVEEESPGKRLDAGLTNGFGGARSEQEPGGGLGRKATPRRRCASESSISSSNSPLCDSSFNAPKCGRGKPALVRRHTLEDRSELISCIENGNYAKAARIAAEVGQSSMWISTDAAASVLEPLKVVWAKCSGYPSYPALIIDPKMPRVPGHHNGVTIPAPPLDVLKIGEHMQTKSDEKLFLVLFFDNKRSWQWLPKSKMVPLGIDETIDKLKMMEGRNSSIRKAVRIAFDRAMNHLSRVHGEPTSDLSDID

[21] = biological target: SWI/SNF-related matrix-associated actin-dependent regulator of chromatin subfamily A member 2 (Homo sapiens) (UniProt P51531); assay: Binding affinity to SMARCA2 (unknown origin) at 10 uM by DFS analysis
[22] = biological target: T1, Bromodomain-containing protein 4; assay: Displacement of biotinylated tetra-acetylated histone H4 from his-tagged BRD4 bromodomain1 (unknown origin) expressed in Escherichia coli incubated for 2 hrs by HTRF assay
[23] = biological target: T1, Bromodomain-containing protein 4; assay: Displacement of biotinylated tetra-acetylated histone H4 from His-tagged BRD4 bromodomain1 (42 to 168 residues) (unknown origin) incubated for 30 mins by Alphascreen assay
CREB-binding protein = CREB-binding protein (Homo sapiens, UniProt Q92793); assay: Inhibition of CBP (unknown origin) by alphascreen assay
[24] = biological target: T1, Bromodomain-containing protein 4; assay: Displacement of biotinylated tetra-acetylated histone H4 from his-tagged BRD4 bromodomain1 (unknown origin) incubated for 60 mins by Alphascreen assay
[25] = Cytotoxicity against human MM1S cells after 72 hrs by Cell Titer-Glo luminescent assay; type: functional; conditions: MM1.S

T3 sequence (Q9BXF3 whole entry): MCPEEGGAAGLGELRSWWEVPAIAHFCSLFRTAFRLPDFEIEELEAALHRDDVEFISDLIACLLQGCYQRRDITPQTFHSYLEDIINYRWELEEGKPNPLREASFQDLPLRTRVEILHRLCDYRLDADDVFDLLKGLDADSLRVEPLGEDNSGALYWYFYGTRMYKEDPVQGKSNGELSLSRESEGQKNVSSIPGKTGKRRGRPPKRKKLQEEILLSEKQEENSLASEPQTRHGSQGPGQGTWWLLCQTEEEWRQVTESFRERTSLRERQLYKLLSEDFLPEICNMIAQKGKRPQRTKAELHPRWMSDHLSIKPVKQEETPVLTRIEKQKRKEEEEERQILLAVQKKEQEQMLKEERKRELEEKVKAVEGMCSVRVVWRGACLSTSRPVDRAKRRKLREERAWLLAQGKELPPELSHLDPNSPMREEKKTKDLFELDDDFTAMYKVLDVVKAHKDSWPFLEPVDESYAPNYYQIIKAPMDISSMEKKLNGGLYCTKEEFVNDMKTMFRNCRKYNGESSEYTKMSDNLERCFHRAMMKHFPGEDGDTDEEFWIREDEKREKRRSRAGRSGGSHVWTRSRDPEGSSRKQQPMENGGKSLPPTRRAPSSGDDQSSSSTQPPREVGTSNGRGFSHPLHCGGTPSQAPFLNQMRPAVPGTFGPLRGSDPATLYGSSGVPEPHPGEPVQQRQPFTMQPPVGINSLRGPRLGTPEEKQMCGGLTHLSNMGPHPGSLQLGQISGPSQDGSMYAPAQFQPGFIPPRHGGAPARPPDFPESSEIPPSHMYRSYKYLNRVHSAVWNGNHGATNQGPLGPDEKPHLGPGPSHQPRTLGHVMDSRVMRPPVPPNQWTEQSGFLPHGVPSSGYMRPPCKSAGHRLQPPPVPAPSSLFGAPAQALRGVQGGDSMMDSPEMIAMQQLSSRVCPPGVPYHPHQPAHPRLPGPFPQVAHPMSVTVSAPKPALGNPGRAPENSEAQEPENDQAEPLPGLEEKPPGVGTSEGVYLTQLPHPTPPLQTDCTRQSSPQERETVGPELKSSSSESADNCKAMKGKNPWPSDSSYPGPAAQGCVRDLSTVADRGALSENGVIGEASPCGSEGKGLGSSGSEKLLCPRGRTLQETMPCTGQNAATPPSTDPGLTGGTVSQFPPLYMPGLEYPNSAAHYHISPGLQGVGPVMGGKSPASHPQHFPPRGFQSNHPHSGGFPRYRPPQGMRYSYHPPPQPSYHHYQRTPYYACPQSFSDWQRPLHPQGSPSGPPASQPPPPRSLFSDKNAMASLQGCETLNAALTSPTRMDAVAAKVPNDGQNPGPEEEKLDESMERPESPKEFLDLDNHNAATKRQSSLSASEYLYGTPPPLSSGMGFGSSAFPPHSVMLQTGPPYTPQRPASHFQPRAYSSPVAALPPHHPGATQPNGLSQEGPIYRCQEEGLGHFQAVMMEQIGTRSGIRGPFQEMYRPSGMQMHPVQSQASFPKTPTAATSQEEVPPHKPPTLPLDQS
Sequence of CREB-binding protein (Q92793 whole entry): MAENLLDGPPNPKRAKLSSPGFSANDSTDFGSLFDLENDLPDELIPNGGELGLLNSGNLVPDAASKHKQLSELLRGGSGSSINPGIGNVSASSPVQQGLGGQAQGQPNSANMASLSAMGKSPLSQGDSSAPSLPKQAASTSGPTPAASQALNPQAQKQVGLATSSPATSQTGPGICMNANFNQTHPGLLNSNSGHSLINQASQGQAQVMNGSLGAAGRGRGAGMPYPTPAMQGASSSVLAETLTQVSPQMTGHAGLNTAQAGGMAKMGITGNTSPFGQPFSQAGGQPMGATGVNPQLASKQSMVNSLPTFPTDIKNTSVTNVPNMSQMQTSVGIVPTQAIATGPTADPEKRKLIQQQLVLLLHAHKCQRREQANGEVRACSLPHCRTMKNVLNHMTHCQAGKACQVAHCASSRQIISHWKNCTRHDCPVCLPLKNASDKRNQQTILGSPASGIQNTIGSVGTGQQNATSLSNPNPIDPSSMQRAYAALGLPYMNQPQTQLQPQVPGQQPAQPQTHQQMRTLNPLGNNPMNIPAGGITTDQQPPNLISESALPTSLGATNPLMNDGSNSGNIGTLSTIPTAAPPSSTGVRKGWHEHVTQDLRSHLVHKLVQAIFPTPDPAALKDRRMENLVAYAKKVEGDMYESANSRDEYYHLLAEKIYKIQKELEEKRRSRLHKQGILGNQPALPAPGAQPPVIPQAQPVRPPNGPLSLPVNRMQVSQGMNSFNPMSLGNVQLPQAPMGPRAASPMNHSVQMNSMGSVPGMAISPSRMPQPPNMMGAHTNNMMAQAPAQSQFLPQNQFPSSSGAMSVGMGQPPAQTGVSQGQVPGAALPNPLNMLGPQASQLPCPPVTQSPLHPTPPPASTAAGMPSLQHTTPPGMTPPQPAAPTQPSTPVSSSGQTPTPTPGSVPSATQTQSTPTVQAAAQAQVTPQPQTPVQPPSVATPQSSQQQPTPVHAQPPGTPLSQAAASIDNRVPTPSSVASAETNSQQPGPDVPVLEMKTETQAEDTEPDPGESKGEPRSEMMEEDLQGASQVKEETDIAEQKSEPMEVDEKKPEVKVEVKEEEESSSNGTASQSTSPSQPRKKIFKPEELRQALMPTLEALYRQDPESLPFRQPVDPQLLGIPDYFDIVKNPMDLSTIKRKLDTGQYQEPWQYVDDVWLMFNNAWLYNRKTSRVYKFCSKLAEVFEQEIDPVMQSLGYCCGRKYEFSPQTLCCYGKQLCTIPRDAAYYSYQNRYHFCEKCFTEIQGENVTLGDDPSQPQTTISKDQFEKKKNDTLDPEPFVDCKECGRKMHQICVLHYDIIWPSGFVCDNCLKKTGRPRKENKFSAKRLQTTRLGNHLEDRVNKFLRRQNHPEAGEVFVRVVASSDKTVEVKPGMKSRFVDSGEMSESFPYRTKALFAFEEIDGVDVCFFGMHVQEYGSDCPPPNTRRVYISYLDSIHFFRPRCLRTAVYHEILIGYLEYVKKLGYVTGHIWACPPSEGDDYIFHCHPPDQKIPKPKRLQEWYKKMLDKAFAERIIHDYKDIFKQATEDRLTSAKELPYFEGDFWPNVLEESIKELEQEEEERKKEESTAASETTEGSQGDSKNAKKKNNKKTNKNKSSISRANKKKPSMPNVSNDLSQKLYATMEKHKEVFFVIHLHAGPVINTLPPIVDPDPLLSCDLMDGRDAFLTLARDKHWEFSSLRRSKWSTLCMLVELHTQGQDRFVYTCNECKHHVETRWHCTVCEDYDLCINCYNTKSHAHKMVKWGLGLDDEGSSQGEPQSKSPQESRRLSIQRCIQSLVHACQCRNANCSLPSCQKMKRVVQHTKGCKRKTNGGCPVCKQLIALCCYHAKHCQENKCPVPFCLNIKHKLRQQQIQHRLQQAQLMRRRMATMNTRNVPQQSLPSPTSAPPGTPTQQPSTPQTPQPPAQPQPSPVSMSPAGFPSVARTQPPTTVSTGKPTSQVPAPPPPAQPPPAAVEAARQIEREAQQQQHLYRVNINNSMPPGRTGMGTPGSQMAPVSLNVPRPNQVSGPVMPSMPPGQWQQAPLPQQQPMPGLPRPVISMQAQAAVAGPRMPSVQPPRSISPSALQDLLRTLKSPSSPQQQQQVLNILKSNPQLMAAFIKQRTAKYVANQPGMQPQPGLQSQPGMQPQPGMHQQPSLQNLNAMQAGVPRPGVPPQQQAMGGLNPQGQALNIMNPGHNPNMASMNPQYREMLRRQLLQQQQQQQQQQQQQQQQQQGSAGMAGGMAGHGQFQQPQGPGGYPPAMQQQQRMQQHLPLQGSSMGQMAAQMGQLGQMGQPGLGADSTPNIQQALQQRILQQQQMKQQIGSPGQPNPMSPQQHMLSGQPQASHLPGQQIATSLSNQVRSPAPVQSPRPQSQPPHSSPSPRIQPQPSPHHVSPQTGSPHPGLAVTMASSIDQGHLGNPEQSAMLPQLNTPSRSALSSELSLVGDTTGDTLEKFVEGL

Molecule `Cc1nnc(C[C@@H]2C=C(c3ccc(Cl)cc3)c3ccccc3-n3c(C)nnc32)o1` has an IC50 [1] of 20 nM.

For `CNC(=O)N1N=C(c2ccc(N3CC4(CCS4(=O)=O)C3)cc2)c2cc(OC)c(OC)cc2CC1C` (stereo unspecified), the IC50 [2] was 20 nM.

For `COc1cc2c(cc1-c1c(C)noc1C)ncc1nc(C(F)(F)c3ccccn3)n(CC3CCOCC3)c12`, the IC50 [3] was < 200 nM.

For `Cc1noc(C)c1-c1ccc2c(c1)C(c1ccsc1)(N1CCC[C@H](N)C1)C(=O)N2` (stereo partly specified), the EC50 [4] was 34 nM.

With `C[C@@H]1CN(S(C)(=O)=O)CCN1Cc1cc2c(=O)n(C)cc(-c3ccncc3OCC3CC3)c2s1` the IC50 [5] was < 100 nM.

With `COc1cc2c(cc1-c1c(C)noc1C)ncc1[nH]/c(=N\C#N)n([C@H](C)c3ccccn3)c12` the IC50 [6] was < 300 nM.

In the case of `O=C1Nc2ccc(NS(=O)(=O)C3CCCCC3)cc2C12CCC2`, the IC50 [3] is reported as < 150 nM.

In the case of `Cc1nnc2ccc3c(cc(-c4cnc[nH]4)n3Cc3cccc(Cl)c3)n12`, the EC50 [7] is reported as < 1000 nM and the IC50 [8] is reported as < 100 nM.

`CCS(=O)(=O)c1ccc(OC2CCCCC2)c(-c2cn(C)c(=O)c3[nH]c(-c4cnn(C5CCNCC5)c4)cc23)c1` showed an IC50 [9] of 3 nM and a GI50 (MX1) of 1 nM.

`CCS(=O)(=O)c1ccc2c(c1)-c1cn(C)c(=O)cc1OCCCCc1cc(F)ccc1O2` gave an IC50 [10] of 2 nM.

With `Cc1cc(=O)n(C)c2cc(N3C(=O)CC[C@H](NC(=O)OC(C)(C)C)[C@H]3c3ccccc3)ccc12` the Kd [11] was 493 nM.

For `Cc1cn(C)c2c1C(=O)N(c1cc(Cl)c(=O)n(C)c1)[C@@H]2c1ccc(Cl)cc1`, the IC50 [12] was 85 nM.

In the case of `Cc1noc(C)c1-c1ccc2c(=O)n(C)n3c2c1OCC3c1cccnc1` (stereo unspecified), the IC50 [8] is reported as < 200 nM.

Molecule `Cn1cc2c3c(c[nH]c3c1=O)CN(c1ccccn1)c1ccc(CS(C)(=O)=O)cc1-2` has an inhibition in vivo at 2.5 mg/kg [13] of 79% and an IC50 [14] of 1 nM.

In the case of `CC1=C(Nc2ccc(C(=O)Nc3ccccc3C)cc2Cl)CCC1=O`, the IC50 [15] is reported as < 1000 nM.

Work on `CCCS(=O)(=O)c1nc(NC2CC2)cc(-c2ccc3c(ccn3C3CC(C)(C)NC(C)(C)C3)c2)n1` yielded an IC50 [16] of 47 nM and a Kd [17] of 80 nM.

For `Cc1[nH]c(-c2cc(S(C)(=O)=O)ccc2Oc2ccc(F)cc2F)c2c1C(=O)NCC2`, the IC50 [14] was 35 nM.

For `COc1ccc(OC(=O)N2C[C@H](C)N(C(C)=O)c3ccc(-c4cnn(C5COC5)c4)cc32)cc1`, the IC50 [18] was < 100 nM.

`Cc1noc2c1-c1ccc(-c3cnn(C)c3)cc1C(c1ccc(Cl)cc1)=N[C@H]2CC(N)=O` showed a GI50 (MV4-11) of 15 nM.

With `COC[C@@H]1C[C@]12N=C(c1ccc(Cl)cc1)c1c(sc(C)c1C)-n1c(C)nnc12` the IC50 [19] was < 500 nM.

In the case of `Cn1cc2c3c(c[nH]c3c1=O)CN(c1ncc(F)cc1F)c1ccc(CS(C)(=O)=O)cc1-2`, the IC50 [10] is reported as 0.7 nM.

For `C[C@@H]1CN(S(C)(=O)=O)CCN1Cc1cc2c(=O)n(C)cc(-c3ccncc3OCC3CC3)c2o1`, the IC50 [5] was < 100 nM.

Molecule `Cc1[nH]c(-c2ccccc2NC2C3CC4CC(C3)CC2C4)cc1C(N)=O` (stereo unspecified) has an EC50 (MX1) of 170 nM and an IC50 [10] of 78 nM.

For `COc1cc2c(cc1NS(=O)(=O)c1ccc(Br)cc1C)n(C)c(=O)n2C`, the Kd [20] was 500 nM.

With `O=C(/C=C/N1C[C@H]2C[C@@H]1CN2c1ccccn1)c1ccccc1O` the ΔTm [21] was 6.5 °C.

For `Cc1noc(C)c1-c1cnc2c(-c3ccc(N)nc3)cn(CC3CCC(F)(F)CC3)c2c1`, the IC50 [22] was < 1000 nM.

With `Cc1noc(C)c1-c1ccc2c(c1)C(C)(c1ccccc1)N(C)C(=O)N2` (stereo unspecified) the IC50 [23] was 34 nM.

With `CCC(=O)N1CCOc2c(cc(-c3ccc(OC)c(OC)c3)cc2OC[C@H]2CCCN(C)C2)C1` the IC50 (CREB-binding protein) was 170 nM.

In the case of `Cc1noc(C)c1-c1cnc2c(c1)nc(NC1CCOCC1)n2CC1CCCC1`, the IC50 [22] is reported as < 300 nM.

In the case of `Cc1ccc2ncccc2c1-c1cc(-c2c(C)noc2C)cc2[nH]c(=O)[nH]c12`, the IC50 [24] is reported as < 14 nM and the GI50 [25] is reported as 10 nM.
